Two molecules from ChEMBL document CHEMBL5537113, “Discovery of 1,2-diaryl-3-oxopyrazolidin-4-carboxamides as a new class of MurA enzyme inhibitors and characterization of their antibacterial activity” (Eur J Med Chem, 2023) can be followed below.

A short description of data set [1]: Drug uptake in Escherichia coli harboring tolC deletion mutant assessed per 1.6x10^9 cells at 10 uM incubated for 30 mins by LC analysis. It is filed as ADME. Particulars: 0.5 h.
Data set [2] concerns the target UDP-N-acetylglucosamine 1-carboxyvinyltransferase (Escherichia coli K-12) (UniProt P0A749). Briefly: Inhibition of Escherichia coli K12 His-tagged MurA expressed in Escherichia coli BL21 cells at 50 uM using UNAG as substrate pre incubated for 15 mins followed by substrate addition and measured after 15 mins by microplate reader analysis relative to control. The note with it: time 30.0 min.

The subject of data set [3] is Clostridioides difficile. Nature of the data set: Bactericidal activity against Clostridioides difficile NR-32904 assessed as reduction in microbial growth by broth microdilution method. In kind it is functional. For orientation: In broth dilution the organism is exposed to a series of concentrations in liquid medium.
Data set [4] concerns Clostridioides difficile. Briefly: Antibacterial activity against Clostridioides difficile NR-49285 assessed as reduction in microbial growth incubated for 48 hrs by broth microdilution method. In kind it is functional.
Data set [5] in a line: Stability of compound in Staphylococcus aureus Newman cell lysate at 10 uM incubated for 24 hrs at 37 degC by UHPLC-MS/MS analysis. In kind it is ADME, subcellular.
Data set [6] deals with Clostridioides difficile. Briefly: Antibacterial activity against Clostridioides difficile ATCC 43255 assessed as reduction in microbial growth incubated for 48 hrs by broth microdilution method. In kind it is functional.
Data set [7] can be described thus: Drug uptake in Escherichia coli harboring tolC deletion mutant at 10 uM incubated for 30 mins by LC analysis. In kind it is ADME. Particulars: 0.5 h.
Data set [8] relates to Clostridioides difficile. Briefly: Antibacterial activity against Clostridioides difficile NR-49278 assessed as reduction in microbial growth incubated for 48 hrs by broth microdilution method. In kind it is functional.
A further data set has as its system Lactobacillus gasseri. Briefly: Antibacterial activity against Lactobacillus gasseri HM 407 assessed as reduction in microbial growth incubated for 48 hrs by broth microdilution method. In kind it is functional.
Data set [9] relates to Bifidobacterium angulatum. Nature of the data set: Antibacterial activity against Bifidobacterium angulatum HM 1189 assessed as reduction in microbial growth incubated for 48 hrs by broth microdilution method. It is filed as functional.
Data set [10] addresses UDP-N-acetylglucosamine 1-carboxyvinyltransferase (Escherichia coli K-12, UniProt P0A749). Nature of the data set: Inhibition of Escherichia coli K12 His-tagged MurA expressed in Escherichia coli BL21 cells using UNAG as substrate pre incubated for 15 mins followed by substrate addition and measured after 15 mins by microplate reader analysis.
The subject of a further data set is Lactobacillus crispatus. Briefly: Antibacterial activity against Lactobacillus crispatus HM 420 assessed as reduction in microbial growth incubated for 48 hrs by broth microdilution method. In kind it is functional.
For data set [11], the target named is UDP-N-acetylglucosamine 1-carboxyvinyltransferase (Escherichia coli K-12, UniProt P0A749, C115D). Nature of the data set: Inhibition of Escherichia coli MurA C115D mutant at 50 uM using UNAG as substrate pre incubated for 15 mins followed by substrate addition and measured after 15 mins by microplate reader analysis relative to control.
Data set [12] concerns UDP-N-acetylglucosamine 1-carboxyvinyltransferase (Escherichia coli K-12), P0A749 [C115D]. Briefly: Inhibition of Escherichia coli MurA C115D mutant using UNAG as substrate pre incubated for 15 mins followed by substrate addition and measured after 15 mins by microplate reader analysis. Particulars: time 30.0 min.
Another data set relates to Bacteroides fragilis. Nature of the data set: Antibacterial activity against Bacteroides fragilis HM 719 assessed as reduction in microbial growth incubated for 48 hrs by broth microdilution method. It is filed as functional.
Data set [13] concerns Caco-2. Briefly: Cytotoxicity against human Caco-2 cells assessed as reduction in cell viability at 64 ug/ml after 24 hrs by MTS assay. In kind it is toxicity, cell-based. The note with it: caco-2, 24 h, dose 64 µg/ml. A general note: Tetrazolium dyes change colour on reduction, which living cells bring about.
The test system of data set [14] is Clostridioides difficile. Nature of the data set: Antibacterial activity against Clostridioides difficile NR-49294 assessed as reduction in microbial growth incubated for 48 hrs by broth microdilution method. In kind it is functional.
Data set [15] relates to Caco-2. Briefly: Cytotoxicity against human Caco-2 cells assessed as reduction in cell viability at > 128 ug/ml after 24 hrs by MTS assay. It is filed as toxicity, cell-based. The note with it: caco-2, 24 h, dose > 128 µg/ml.

UDP-N-acetylglucosamine 1-carboxyvinyltransferase (Escherichia coli K-12, UniProt P0A749), sequence (P0A749 whole entry): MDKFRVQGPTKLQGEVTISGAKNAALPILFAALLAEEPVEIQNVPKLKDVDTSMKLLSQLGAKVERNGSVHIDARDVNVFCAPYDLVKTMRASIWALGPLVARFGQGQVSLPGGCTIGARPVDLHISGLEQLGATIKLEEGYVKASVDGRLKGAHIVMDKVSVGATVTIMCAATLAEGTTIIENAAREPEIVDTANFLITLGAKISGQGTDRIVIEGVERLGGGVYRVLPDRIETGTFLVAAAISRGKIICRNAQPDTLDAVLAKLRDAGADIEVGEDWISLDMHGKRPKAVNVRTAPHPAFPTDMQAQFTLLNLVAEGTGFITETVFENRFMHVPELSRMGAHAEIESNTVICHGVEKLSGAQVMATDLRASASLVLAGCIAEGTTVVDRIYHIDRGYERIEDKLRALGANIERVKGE
UDP-N-acetylglucosamine 1-carboxyvinyltransferase (Escherichia coli K-12), sequence (P0A749 whole entry): as above
UDP-N-acetylglucosamine 1-carboxyvinyltransferase (Escherichia coli K-12), P0A749 [C115D], sequence (P0A749 whole entry C115D): as the sequence (P0A749 whole entry) above, with C115D counted along it
UDP-N-acetylglucosamine 1-carboxyvinyltransferase (Escherichia coli K-12, UniProt P0A749, C115D), sequence (P0A749 whole entry C115D): as the sequence (P0A749 whole entry) above, with C115D counted along it

For the molecule `O=C(Nc1ncc([N+](=O)[O-])s1)C1CN(c2cccc(Cl)c2)N(c2cccc(Cl)c2)C1=O` (stereo not given), the Drug uptake in data set [1] is 1.8 µM; in data set [7], 56 nM. The inhibition – broadly, the relative decrease from the control value, in per cent – in [2] is 67.6%; in data set [12], 76%. Moreover, the MBC (commonly the lowest tested concentration that kills the bacteria rather than only halting them) in the data set on Clostridioides difficile [3] stood at 1 µg/mL. For the same molecule, the minimum inhibitory concentration (MIC) (usually the least concentration at which growth counts as inhibited) with Clostridioides difficile [4] is 0.5 µg/mL; with Clostridioides difficile [6], 0.125 µg/mL; with Clostridioides difficile [8], 0.5 µg/mL; in the data set on Lactobacillus gasseri it was above 64 µg/mL; in data set [9], 32 µg/mL; with Lactobacillus crispatus it was above 64 µg/mL. Further, the MIC came to 8 µg/mL with Bacteroides fragilis and 0.5 µg/mL in the data set with Clostridioides difficile [14]. Further, the Stability result in [5] is “Stable”. Also, the IC50 (as a rule, the concentration that gives 50% inhibition) in [10] stood at 9.8 µM; in data set [11], 10.9 µM. Also, the Activity entry in the data set on Caco-2 [13] is reported as “Non-Toxic”.

On to `O=C(Nc1ncc([N+](=O)[O-])s1)C1CN(c2ccc(Cl)cc2)N(c2ccc(Cl)cc2)C1=O` (stereo not given), for which, in data set [2], the inhibition worked out at 70.2%. The minimal bactericidal concentration (MBC) in the data set with Clostridioides difficile [3] is 1 µg/mL. Also, the MIC in the data set with Clostridioides difficile [4] is 1 µg/mL; with Clostridioides difficile [6] it was 0.25 µg/mL; in the data set on Clostridioides difficile [8] it was 0.5 µg/mL; in the data set with Lactobacillus gasseri, above 64 µg/mL; in [9] it was above 64 µg/mL; in the data set on Lactobacillus crispatus, above 64 µg/mL. Also, the minimal inhibitory concentration (MIC) is 4 µg/mL in the data set with Bacteroides fragilis and 0.5 µg/mL with Clostridioides difficile [14]. In addition, the Stability result in [5] was “Stable”. Besides, the Activity entry with Caco-2 [15] is on record as “Non-Toxic”. Also, inhibition in data set [10] was half-maximal at 10.2 µM (IC50).
